Experimental findings from patent publication US8580297B2, “Components for producing amphoteric liposomes” (Marina Biotech, Inc., priority 2002, dated 2013) are described below.

A short description of the data set: Zeta potential profile at varying pH of amphoteric liposomes (zero point = isoelectric point). Type of data set: physicochemical. The conditions noted are these: liposomes of 2 mg lipid and 10 mg DMPC; buffer 10 mM Kac, 10 mM HEPES, 150 mM NaCl; extruded 200 nm; value is a pH. As for the experimental part: FIG. 1 is a graph showing a profile of the zeta potential in mV at varying pH values for the amphoteric liposomes prepared according to Example 4.
2 mg of the corresponding lipid and 10 mg of DMPC are dissolved in 4 ml of chloroform/methanol (1:1 v/v) and dried completely in a rotary evaporator. The lipid film is hydrated with 4.3 ml of buffer (10 mM Kac, 10 mM HEPES, 150 mM NaCl, pH 7.5) at a lipid concentration of 5 mM using ultrasonic treatment for 5 minutes. Finally, the suspension is frozen and, following thawing, subjected to multiple extrusions (Avestine LiposoFast, polycarbonate filter, pore width 200 nm). The profile of the zeta potential in mV at varying pH values is illustrated in FIG. 1. The zero point indicates the pH value at which the liposome is discharged. This pH corresponds to the isoelectric point of the lipid and is 4.5 for #8, 5.2 for #34, 5.7 for #25.

`CCCCCCCC/C=C\CCCCCCCC(=O)OCC(CN(CCC(=O)O)CCC(=O)O)OC(=O)CCCCCCC/C=C\CCCCCCCC` (centres unmarked) [#8, N,N-bis(propanoic acid-3-yl)-N-(2,3-dioleoyloxypropyl)amine]: the “isoelectric point of the lipid (pH value at which the liposome is discharged, zero point of zeta potential)” value came to 4.5.

For the molecule `CCCC(=O)OC(COC(=O)CC)OP(=O)(O)OCCNCCC(=O)NC(Cc1c[nH]cn1)C(=O)O` (centres unmarked) [#25, phosphatidyl glycerylcarnosine], the “isoelectric point of the lipid (pH value at which the liposome is discharged, zero point of zeta potential)” value was 5.7.
